Laboratory results as given in patent US10485814B2, “Nicotinamide riboside analogs and pharmaceutical compositions and uses thereof” (GlaxoSmithKline Intellectual Property (No. 2) Limited, priority 2014, dated 2019).
Counter-ions that a name gives are not always drawn.

tested on: not listed separately; test: Plasma hydrolysis of nicotinamide riboside analogs to NR (incubation with rat plasma, LC/MS/MS); type: in vitro ADME; conditions: 10 mM, incubated 30 min at 37° C.
Experimental: Compounds were diluted with rat plasma to a concentration of 10 millimolar (mM). Samples were incubated for 30 min at 37° C., taking 50 microL aliquots for analysis at 0 and 30 min. The aliquots were loaded onto a deep 96 well plate, then 350 microL of 0.1% (v:v) formic acid in acetonitrile was added to each well. The plate was covered and sealed to prevent evaporation, then it was placed on an orbital plate shaker set to 800-900 rps for 5-10 minutes. Next, the plate was centrifuged at around 3000 rpm for 5 min to provide a clear supernatant. For LC/MS/MS analysis, 200 microL of supernatant from each well was transferred onto a clean plate, which was subsequently capped and placed into an autosampler.
LCMS Conditions. For each well, a 10 microL sample was injected via autosampler onto a Chromolithe Performance, RP-18e (100×4.6 mm) column, and eluted with a binary gradient. Solvent A=0.1% formic acid, 0.1% N,N-dibutyl-N-methylamine (DBME) in 2 mM aqueous ammonium acetate (1:1:1000 v:v:v). Solvent B=0.1% formic acid in acetonitrile (1:1000 v:v). The solvent gradient was as follows: 0-0.22 min, 95:5 A:B; […], 95:5 A:B to 30:70 A:B (linear gradient); 5.05-6.05 min, 30:70 A:B; 6.05-6.60 min, 30:70 A:B to 95:5 A:B (linear gradient); 6.60-7.15 min, 95:5 A:B; stop elution at 7.15 min. Nicotinamide riboside eluted at approximately 1.7 min. A triple-quadrupole mass spectrometer was employed for peak identification. The identity of the analyte was confirmed by MS observation of a Q1 peak at m/z=255 (M)^+, and a Q3 peak at m/z=123.1 (M-C5H8O4)^+.
The results are shown in FIG. 3, with the release of free nicotinamide riboside measured using by HPLC-MS at 0, 30, and 60 minute time points (columns 5, 6, and 7 of table shown in FIG. 3). For each of NR esters in Table 3, except nicotinamide riboside tribenzoate, nicotinamide riboside was detected at the 30 minute time point.

Compound | conversion to free nicotinamide riboside
CCCCC(=O)OC[C@H]1O[C@@H]([n+]2cccc(C(N)=O)c2)[C@H](OC(=O)CCCC)[C@@H]1OC(=O)CCCC [1-((2R,3R,4R,5R)-3,4-bis(pentanoyloxy)-5-((pentanoyloxy)methyl)tetrahydrofuran-2-yl)-3-carbamoylpyridin-1-ium chloride] | converted to free nicotinamide riboside to a significant degree
CCCCCCCCCCCC(=O)OC[C@H]1O[C@@H]([n+]2cccc(C(N)=O)c2)[C@H](O)[C@@H]1O.O=C([O-])C(F)(F)F [NR+ monododecanoate, nicotinamide riboside 5′-monododecanoate] | converted to free nicotinamide riboside to a significant degree
CCCCCC(=O)OC[C@H]1O[C@@H]([n+]2cccc(C(N)=O)c2)[C@H](O)[C@@H]1O [NR+ monohexanoate, 3-carbamoyl-1-((2R,3R,4S,5R)-5-((hexanoyloxy)methyl)-3,4-dihydroxytetrahydrofuran-2-yl)pyridin-1-ium 2,2,2-trifluoroacetate] | converted to free nicotinamide riboside to a significant degree
CCCCCCCCC(=O)OC[C@H]1O[C@@H]([n+]2cccc(C(N)=O)c2)[C@H](O)[C@@H]1O [NR+ monononanoate, 3-carbamoyl-1-((2R,3R,4S,5R)-3,4-dihydroxy-5-((nonanoyloxy)methyl)tetrahydrofuran-2-yl)pyridin-1-ium 2,2,2-trifluoroacetate] | converted to free nicotinamide riboside to a significant degree
CCCCCCCC/C=C\CCCCCCCC(=O)OC[C@H]1O[C@@H]([n+]2cccc(C(N)=O)c2)[C@H](O)[C@@H]1O [NR+ monooleate, 3-carbamoyl-1-((2R,3R,4S,5R)-3,4-dihydroxy-5-((oleoyloxy)methyl)tetrahydrofuran-2-yl)pyridin-1-ium 2,2,2-trifluoroacetate] | converted to free nicotinamide riboside to a significant degree
CCCCC(=O)OC[C@H]1O[C@@H]([n+]2cccc(C(N)=O)c2)[C@H](O)[C@@H]1O [NR+ monopentanoate, 3-carbamoyl-1-((2R,3R,4S,5R)-3,4-dihydroxy-5-((pentanoyloxy)methyl)tetrahydrofuran-2-yl)pyridin-1-ium 2,2,2-trifluoroacetate] | converted to free nicotinamide riboside to a significant degree
CCCCCCCCCCC(=O)OC[C@H]1O[C@@H]([n+]2cccc(C(N)=O)c2)[C@H](O)[C@@H]1O [NR+ monoundecanoate, nicotinamide riboside 5′-monoundecanoate] | converted to free nicotinamide riboside to a significant degree
CCCCCC(=O)OCC1O[C@@H]([n+]2cccc(C(N)=O)c2)[C@H](OC(=O)CCCCC)[C@@H]1OC(=O)CCCCC (stereo partly shown) [NR+ trihexanoate TFA-] | converted to free nicotinamide riboside to a significant degree
CCCCCCCCCC(=O)OC[C@H]1O[C@@H](N2C=CCC(C(N)=O)=C2)[C@H](O)[C@@H]1O [NRH monodecanoate, nicotinamide riboside hydride 5′-monodecanoate] | converted to free nicotinamide riboside to a significant degree
CCCCCCCCCCCCCC(=O)OC[C@H]1O[C@@H](N2C=CCC(C(N)=O)=C2)[C@H](O)[C@@H]1O [NRH monotetradecanoate, ((2R,3S,4R,5R)-5-(3-carbamoylpyridin-1 (4H)-yl)-3,4-dihydroxytetrahydrofuran-2-yl)methyl tetradecanoate] | converted to free nicotinamide riboside to a significant degree
CCOC(=O)OC[C@H]1O[C@@H](N2C=CCC(C(N)=O)=C2)[C@H](OC(=O)OCC)[C@@H]1OC(=O)OCC [NRH triethylcarbonate, ((2R,3R,4R,5R)-5-(3-carbamoylpyridin-1(4H)-yl)-3,4-bis((ethoxycarbonyl)oxy)-tetrahydrofuran-2-yl)methyl ethylcarbonate] | converted to free nicotinamide riboside to a significant degree
NC(=O)c1ccc[n+]([C@@H]2O[C@H](COP(=O)([O-])O)[C@@H](O)[C@H]2O)c1 [Nic mononucleotide, nicotinamide mononucleotide, reference compound] | some amount of conversion to free nicotinamide riboside

tested on: HaCaT cells (a human keratinocyte cell line); test: Intracellular NAD measurement in HaCaT cells (ADPR cyclase enzymatic assay, absorbance 405 nm); type: cell-based; conditions: HaCaT in DMEM medium with Vit B3, highest tested doses, 3 hrs
Experimental: HaCaT cells (AddexBio Technologies, San Diego, Calif., Passage 16-19) were grown in Medium DMEM/GlutMax (Life technologies, Grand Island, N.Y.) supplemented with 10% FBS (Life technologies) and Non-essential amino acids (NEAA, Life technologies) and then seeded in 12-well plates (Corning, Tewksbury, Mass.) with a density at 2×10^5 cells per well and 2 ml of culture medium in each well for overnight.
Stock solution of dihydronicotinamide riboside (NRH, GSK3008320A, GSK, RTP, NC) was prepared in ethanol at 100 mM (25.6 mg/ml) and stored at −20° C. Cells were treated with different concentrations of NRH for 3 hrs, washed twice with PBS containing 5 mM EDTA, and then subject to Nicotinamide adenine dinucleotide (NAD) measurement. In brief, acetonitrile (ACN) lysis buffer (Ammonium Acetate (50 mM) and 90% acetonitrile) was added to each well (200 μl/well) to lyse the cells at RT for 5-10 mins by gently rotating on a culture plate shaker at a low speed. Enzyme master mix (300 μM of 5-Amino-(3,4′-bipyridin)-6(1H)-one (Inamrinone) (Sigma-Aldrich), a substrate for ADP ribosyl cyclase (ADPR cyclase)) and 30 nM ADPR Cyclase (Sigma, St. Louis, Mo.), 7.5 μM of N-(2-fluoro-4-(methylsulfonyl)phenyl)-2-methyl-6-(thiazol-5-yl)isonicotinamide (a CD38 inhibitor) in 75 mM HEPES pH7 buffer (Life Technologies)) was added to the lysed cells (400 μl of enzyme master mix/well). Enzymatic reaction was incubated at RT for ˜30 min. At the end of incubation, the supernatant (200 μl) of the reaction solution from each well was transferred to each well of a 96-well plate and absorbance was read twice in the 96-well plate at 405 nm using a plate reader (Spectra Maxplus, Molecular Devices, Sunnyvale, Calif.). A mixture of enzyme master mix and ACN extraction solution at 2:1 ratio was used as a blank reference. NAD (Sigma) was used as a positive control.
HaCaT cells were grown as described in example 23 in the regular cell culture DMEM medium as described earlier or in the Epilife medium without nacinamide (Life Technologies). Cells were treated with different concentrations of NRH or niacinamide (NIA, DSM nutritional products) for 3 hrs, washed twice with PBS containing 5 mM EDTA, and then subject to Nicotinamide adenine dinucleotide (NAD) measurement as described in example 23. A mixture of enzyme master mix and ACN extraction solution at 2:1 ratio for a blank reference. NAD (Sigma) was used as a positive control. […] Both the CD38 inhibitor and Niacinamide increased NAD in the HaCaT cells cultured in the Vit B3 depleted culture medium, and the induction of NAD by niacinamide was dose-dependent (solid bars). However, the induction of NAD by niacinamide (highest at ˜1.5 fold) was low compared to those by NRH. Therefore, NRH is a stronger NAD inducer compared to a CD38 inhibitor or Niacinamide.
HaCaT cells were grown in regular culture media as described in example 1 and seeded in 12-well plates with density at 2×10^5 cells per well and 1 ml of culture medium in each well. NRH stock solution was prepared in ethanol at 100 mM (25.6 mg/ml) and stored at −20° C. Stock solutions of NRH esters were made at 50 mM in DMSO (see FIG. 9B for compound info). Cells were treated with NRH esters and NRH at 150 μM for 6 and 16 hrs, washed twice with PB S containing 5 mM EDTA, and then subject to Nicotinamide adenine dinucleotide (NAD) measurement as described in example 23.
HaCaT cells were grown in regular culture media as described above and seeded in 12-well plates with density at 2×10^5 cells per well and 1 ml of culture medium in each well. NRH stock solution was prepared in ethanol at 100 mM (25.6 mg/ml) and stored at −20° C. NRH (200 μM) was used as a positive control. Because of the possible solubility issue related to NRH monoC16, fatty acid-free bovine serum albumin (defatted BSA, Sigma) was used as a carrier for the compound. NRH monoC16 stock solution (100×) was complexed with defatted BSA ([…]) prior to the treatment, resulting in a NRH monoC16 stock solution (10 ×). […]

Compound | NAD elevation
Cc1cc(C(=O)Nc2ccc(S(C)(=O)=O)cc2F)cc(-c2cncs2)n1 [CD38 inhibitor, N-(2-fluoro-4-(methylsulfonyl)phenyl)-2-methyl-6-(thiazol-5-yl)isonicotinamide, reference compound] | did not lead to NAD elevation

same assay, conditions: HaCaT in Vit B3 depleted culture medium, 3 hrs

Compound | NAD level
Cc1cc(C(=O)Nc2ccc(S(C)(=O)=O)cc2F)cc(-c2cncs2)n1 [CD38 inhibitor, N-(2-fluoro-4-(methylsulfonyl)phenyl)-2-methyl-6-(thiazol-5-yl)isonicotinamide, reference compound] | increased NAD

same assay, conditions: HaCaT, 150 μM

Compound | appearance of treated cells (potential cytotoxicity)
CCCCCCCC/C=C\CCCCCCCC(=O)OC[C@H]1O[C@@H]([n+]2cccc(C(N)=O)c2)[C@H](O)[C@@H]1O [NR+ monooleate, 3-carbamoyl-1-((2R,3R,4S,5R)-3,4-dihydroxy-5-((oleoyloxy)methyl)tetrahydrofuran-2-yl)pyridin-1-ium 2,2,2-trifluoroacetate] | appeared unhealthy

tested on: not listed separately; test: Gravimetric Vapor Sorption (GVS); type: physicochemical; conditions: 90% RH, 25° C.
Experimental: Gravimetric Vapor Sorption (GVS): Samples were analyzed using a VTI corporation (now part of TA Instruments) SGA-100 with Cahn microbalance equipped with quartz sample and reference pans. Samples were dried in the SGA-100 under dry nitrogen for 5 hours at 25° C. followed by a moisture absorption step ramp from 5% relative humidity (RH) to 95% or 90% RH followed by a desorption step ramp back to 5% or 10% RH (all steps at 25° C.). The samples were held at each % RH step for 4 hours.

Compound | GVS weight gain from the dried state
CCCCCC(=O)OC[C@H]1O[C@@H](N2C=CCC(C(N)=O)=C2)[C@H](O)[C@@H]1O [mono C6-NRH derivative, nicotinamide riboside hydride 5′-monohexanoate] | approximately 5%
